Values quoted from earlier work as cited in patent US20100105139A1, “Ligand Targeted Nanocapsules for the delivery of RNAi and other Agents” (priority 2008, published 2010).

Tested on: advanced stage melanoma
Conditions: melanoma patients

In the case of `COc1cccc2c1C(=O)c1c(O)c3c(c(O)c1C2=O)C[C@@](O)(C(=O)CO)C[C@@H]3O[C@H]1C[C@H](N)[C@H](O)[C@H](C)O1` [DOX, Doxorubicin], the response rates is given as “essentially ineffective”.
